For data set [1] the following is noted: assumed input value, ref (20); cited from earlier work.
Data set [2] in a line: Rose Bengal release from dense PCL capsules with silicone oil carriers into PBS. In kind it is physicochemical. Conditions: Silikon 1000 in dense PCL capsule.

SMILES strings stand for the structures.

On to `O=C([O-])c1c(Cl)c(Cl)c(Cl)c(Cl)c1-c1c2cc(I)c(=O)c(I)c-2oc2c(I)c([O-])c(I)cc12.[Na+].[Na+]` [Rose Bengal, Rose Bengal sodium salt], for which, in data set [1], the “RB diffusivity in PBS” value was 4.8×10^−10 m^2 s^−1. In addition, the “dissolution of Rose Bengal in hydrophobic silicone oil” value in data set [2] is “never dissolves in the oil”.

The values are drawn from patent US20250090466A1, “DRUG DELIVERY COMPOSITIONS AND DEVICES” (Ohio State Innovation Foundation, priority 2022, published 2025).
